Experimental data taken from article PMC5323493, “Synthesis and pre-clinical evaluation of a new class of high-affinity ^18F-labeled PSMA ligands for detection of prostate cancer by PET imaging” (European Journal of Nuclear Medicine and Molecular Imaging, 2016).
Read-outs that look alike come from different tables or passages of the source. Marks after values point to notes of the source that are not given here. One block for each compound: values may come before it.

What was measured:
LNCaP xenograft tumor [1] = test: μPET/CT imaging of LNCaP xenograft tumor-bearing mice; format: in vivo; conditions: for Max. LNCaP Tumor Uptake Time p.i.: image derived; for Max. LNCaP Tumor Uptake: image derived calculation (ROI), at time of maximum uptake; for route of clearance: from μPET/CT images
From the text: (§1) All animal studies were approved by the Institutional Animal Care and Use Committee of Weill Cornell Medicine and were undertaken in accordance with the guidelines set forth by the USPHS Policy on Humane Care and Use of Laboratory Animals. Animals were housed under standard conditions in approved facilities with 12-h light/dark cycles. Food and water was provided ad libitum throughout the course of the studies. Male inbred athymic nu/nu mice were purchased from The Jackson Laboratory. For inoculation in mice, LNCaP cells were suspended at 4 x 10^7 cells/mL in a 1:1 mixture of PBS:Matrigel (BD Biosciences). Each mouse was injected in the left flank with 0.25 mL of the cell suspension. The mice were imaged when the tumors reached approximately 200–400 mm^3, while biodistributions were conducted when tumors were in the range 100–400 mm^3.
Specific activity was greater than 190 GBq/μmol. The mice were imaged by μPET/CT (Inveon™; Siemens Medical Solutions, Inc.) at 1 h, 2 h, 4 h and 6 h p.i. ([^18F]fluorinated compounds) or 1 h and 3 h p.i. ([^68Ga]Ga-PSMA-HBED-CC). Total acquisition time was thirty minutes, and a CT scan was obtained either immediately before or immediately after the acquisition for both anatomical co-registration and attenuation correction. The data were reconstructed using the commercial Inveon™ software supplied by the vendor. Tumor uptake was estimated by drawing a region of interest (ROI).

LNCaP xenograft tumor [2] = conditions: cited from earlier work
PSMA = target: T1, PSMA (Homo sapiens, UniProt Q04609); test: competitive binding assay against 99mTc-MIP-1427 on LNCaP cells; conditions: non-radioactive ligands, 1 nM 99mTc-MIP-1427, 1 h
T1 construct: host or cells: LNCaP
T1 sequence (Q04609 whole entry): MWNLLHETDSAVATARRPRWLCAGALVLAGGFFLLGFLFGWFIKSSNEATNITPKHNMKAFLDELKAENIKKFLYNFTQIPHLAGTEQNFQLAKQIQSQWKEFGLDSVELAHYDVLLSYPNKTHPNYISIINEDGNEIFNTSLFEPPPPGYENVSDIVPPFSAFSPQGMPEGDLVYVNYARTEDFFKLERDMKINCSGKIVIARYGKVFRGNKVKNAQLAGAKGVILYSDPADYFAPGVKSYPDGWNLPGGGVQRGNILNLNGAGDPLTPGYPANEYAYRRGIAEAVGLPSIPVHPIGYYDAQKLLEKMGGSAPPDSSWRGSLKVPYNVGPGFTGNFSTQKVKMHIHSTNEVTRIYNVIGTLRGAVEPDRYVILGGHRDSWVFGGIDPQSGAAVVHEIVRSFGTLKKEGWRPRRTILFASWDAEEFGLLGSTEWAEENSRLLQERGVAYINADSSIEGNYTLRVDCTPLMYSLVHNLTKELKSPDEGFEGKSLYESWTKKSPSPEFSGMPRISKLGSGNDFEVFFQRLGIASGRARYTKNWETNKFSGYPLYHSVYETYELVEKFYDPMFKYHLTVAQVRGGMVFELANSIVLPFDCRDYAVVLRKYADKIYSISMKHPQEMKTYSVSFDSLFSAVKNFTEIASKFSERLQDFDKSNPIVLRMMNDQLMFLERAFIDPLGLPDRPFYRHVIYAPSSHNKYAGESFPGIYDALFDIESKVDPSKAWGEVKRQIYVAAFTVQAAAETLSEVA
Experimental: The human prostate cancer cell line, LNCaP, was obtained from the American Type Culture Collection. Cell culture supplies were from Invitrogen unless otherwise noted. LNCaP cells were maintained in RPMI-1640 medium supplemented with 10 % fetal bovine serum (Hyclone), 4 mM L-glutamine, 1 mM sodium pyruvate, 10 mM N-2-hydroxyethylpiperazine-N-2-ethanesulfonic acid (HEPES), 2.5 mg/mL D-glucose, and 50 μg/mL gentamicin in a humidified incubator at 37 °C/5 % CO2. Cells were removed from flasks for passage or for transfer to 12-well assay plates by incubating them with 0.25 % trypsin/ethylenediaminetetraacetic acid (EDTA).
The 50 % inhibition concentrations (IC50 ) values of the non-radioactive fluorine-containing ligands were determined by screening in a multi-concentration competitive binding assay against ^99mTc- ((7S,12S,16S)-1-(1-(carboxymethyl)-1H-imidazol-2-yl)-2-((1-(carboxymethyl)-1H-imidazol-2-yl)methyl)-9,14-dioxo-2,8,13,15-tetraazaoctadecane-7,12,16,18-tetracarboxylic acid technetium tricarbonyl complex; ^99mTc-MIP-1427) for binding to PSMA on LNCaP cells, according to methods previously described. The LNCaP cells were plated 48 hours prior to the experiment to achieve a density of approximately 5 x 10^5 cells/well (in triplicate) in RPMI-1640 medium supplemented with 0.25 % bovine serum albumin prior to performing the assay. LNCaP cells were incubated for 1 hour with 1 nM ^99mTc-MIP-1427 in serum-free RPMI-1640 medium in the presence of 1–10,000 nM test compounds. Radioactive incubation media was then removed by pipette and the cells were washed twice using 1 mL of ice-cold HEPES buffer. Cells were harvested from the plates and transferred to tubes for radioactive counting using a Packard Cobra II gamma counter. IC50 values were determined by non-linear regression using GraphPad Prism software.

LNCaP xenograft tumor [3] = test: ex vivo biodistribution in LNCaP xenograft tumor-bearing mice; conditions: for tumor uptake / Max. LNCaP Tumor Uptake: n = 5; for tumor uptake relative to [68Ga]Ga-PSMA-HBED-CC: at the time of maximum tumor uptake; for Max. LNCaP Tumor Uptake Time p.i. / Max. LNCaP Tumor Uptake: biodistribution
From the text: as §1
LNCaP xenograft tumor-bearing mice (n = 5 per time point) were injected via the tail vein with a bolus injection of 370 kBq (10 μCi) of either [^18F]RPS-040 or [^18F]RPS-041. The specific activity of the compounds was 341 GBq/μmol and 391 GBq/μmol, respectively. The mice were euthanized by asphyxiation under isofluorane at 1 h, 2 h and 4 h p.i. An additional set of mice (n = 5) was co-administered [^18F]RPS-040 (370 kBq; 10 μCi) and 2-PMPA (approx. 250 μg; 10 mg/kg) and sacrificed at 1 h p.i. to determine the uptake specificity. A full biodistribution study was conducted on all mice, and tissues were excised, weighed and counted in an automated γ-counter. Tissue time-activity values were expressed as percentage injected dose per gram of tissue (%ID/g). Statistical comparisons were performed using the standard Student’s t test for a 95 % confidence interval.

[4] = 1 h p.i., co-administered with 2-PMPA

SMILES: O=C(O)CCC(NC(=O)NC(CCCCNC(=O)c1ccc([18F])nc1)C(=O)O)C(=O)O (centres unmarked) [DCFPyL, 2-(3-{1-carboxy-5-[(6-[18F]fluoro-pyridine-3-carbonyl)-amino]-pentyl}-ureido)-pentanedioic acid, reference compound]
Max. LNCaP Tumor Uptake Time p.i. (LNCaP xenograft tumor [1]): 1 h
Max. LNCaP Tumor Uptake (LNCaP xenograft tumor [1]): 5.71 ± 0.61^c %ID/g
maximum standardized uptake value (SUVmax) (LNCaP xenograft tumor [2]; LNCaP tumor xenografts, 1 h p.i.): 1.1 ± 0.1

SMILES: O=C(O)CC[C@H](NC(=O)N[C@@H](CCCCNC(=O)Nc1ccc(OCc2cn(CCF)nn2)cc1)C(=O)O)C(=O)O [RPS-038]
IC50 (PSMA): 21.3 nM
Max. LNCaP Tumor Uptake Time p.i. (LNCaP xenograft tumor [1]): 2 h
Max. LNCaP Tumor Uptake (LNCaP xenograft tumor [1]): 8.87 ± 0.64^c %ID/g

SMILES: O=C(O)CC[C@H](NC(=O)N[C@@H](CCCCNC(=O)Nc1cccc(OCc2cn(CCF)nn2)c1)C(=O)O)C(=O)O [RPS-043]
IC50 (PSMA): 36.5 nM
Max. LNCaP Tumor Uptake Time p.i. (LNCaP xenograft tumor [1]): 2 h
Max. LNCaP Tumor Uptake (LNCaP xenograft tumor [1]): 9.04 ± 1.88^c %ID/g

Now from value to compound, other results behind:

IC50 (PSMA): 0.3 nM
SMILES: O=C(O)CC[C@H](NC(=O)N[C@@H](CCCCNC(=O)Nc1ccc(I)cc1)C(=O)O)C(=O)O [MIP-1095]
Max. LNCaP Tumor Uptake (LNCaP xenograft tumor [2]): 34.3 ± 12.7^a %ID/g
Max. LNCaP Tumor Uptake Time p.i. (LNCaP xenograft tumor [2]): 4 h

IC50 (PSMA): 14 nM
Max. LNCaP Tumor Uptake Time p.i. (LNCaP xenograft tumor [1]): 2 h
Max. LNCaP Tumor Uptake (LNCaP xenograft tumor [1]): 5.89 ± 0.27^c %ID/g
SMILES: O=C(O)CC[C@H](NC(=O)N[C@@H](CCCCNC(=O)Nc1ccccc1OCc1cn(CCF)nn1)C(=O)O)C(=O)O [RPS-039]
route of clearance (LNCaP xenograft tumor [1]): clearance via the hepatobiliary pathway in addition to renal excretion

IC50 (PSMA): 7 nM
Max. LNCaP Tumor Uptake (LNCaP xenograft tumor [1]): 14.30 %ID/g
tumor-to-blood ratio (LNCaP xenograft tumor [3]; 1 h p.i.): 28.8 ± 8.06
tumor-to-blood ratio relative to [68Ga]Ga-PSMA-HBED-CC (LNCaP xenograft tumor [3]; 1 h p.i.): three-fold greater
tumor-to-kidney ratio relative to [68Ga]Ga-PSMA-HBED-CC (LNCaP xenograft tumor [3]; 1 h p.i.): ten
kidneys uptake (LNCaP xenograft tumor [3]; [4]): 5.95 ± 1.65 %ID/g
spleen uptake (LNCaP xenograft tumor [3]; [4]): 0.32 ± 0.05 %ID/g
tumor uptake (LNCaP xenograft tumor [3]; 1 h p.i., co-administered with 2-PMPA (10 mg/kg)): 1.75 ± 0.15 %ID/g
kidneys uptake (LNCaP xenograft tumor [3]; 1 h p.i., unblocked): 74.24 ± 10.71 %ID/g
spleen uptake (LNCaP xenograft tumor [3]; 1 h p.i., unblocked): 4.97 ± 1.55 %ID/g
tumor uptake (LNCaP xenograft tumor [3]; 1 h p.i., unblocked): 12.69 ± 1.56 %ID/g
uptake in the kidneys (LNCaP xenograft tumor [3]; 2 h p.i.): 60.94 ± 8.06 %ID/g
uptake in the liver (LNCaP xenograft tumor [3]; 2 h p.i.): 4.72 ± 0.93 %ID/g
uptake in the spleen (LNCaP xenograft tumor [3]; 2 h p.i.): 3.23 ± 1.26 %ID/g
tumor-to-blood ratio (LNCaP xenograft tumor [3]; 4 h p.i.): 92.93 ± 75.67
tumor uptake relative to [68Ga]Ga-PSMA-HBED-CC (LNCaP xenograft tumor [3]): more than two-fold greater
Max. LNCaP Tumor Uptake Time p.i. (LNCaP xenograft tumor [3]): 2 h
Max. LNCaP Tumor Uptake (LNCaP xenograft tumor [3]; 2 h p.i.): 14.30 ± 2.49 %ID/g
Max. LNCaP Tumor Uptake (LNCaP xenograft tumor [3]; 2 h p.i., listed as [^18F]RPS-040): > 10 %ID/g
SMILES: O=C(O)CC[C@H](NC(=O)N[C@@H](CCCCNC(=O)Nc1cccc(-c2cn(CCF)nn2)c1)C(=O)O)C(=O)O [RPS-040]

IC50 (PSMA): 3.2 nM
Max. LNCaP Tumor Uptake (LNCaP xenograft tumor [1]): 12.51 %ID/g
tumor-to-blood ratio (LNCaP xenograft tumor [3]; 1 h p.i.): 20.78 ± 7.87
tumor-to-blood ratio relative to [68Ga]Ga-PSMA-HBED-CC (LNCaP xenograft tumor [3]; 1 h p.i.): more than two-fold
tumor-to-kidney ratio relative to [68Ga]Ga-PSMA-HBED-CC (LNCaP xenograft tumor [3]; 1 h p.i.): twelve-fold greater
contrast (tumor-to-background) relative to [18F]RPS-040 (LNCaP xenograft tumor [3]; 2 h p.i.): two-fold greater
uptake in the kidneys (LNCaP xenograft tumor [3]; 2 h p.i.): 23.93 ± 5.45 %ID/g
uptake in the liver (LNCaP xenograft tumor [3]; 2 h p.i.): 2.51 ± 0.21 %ID/g
uptake in the spleen (LNCaP xenograft tumor [3]; 2 h p.i.): 1.13 ± 0.47 %ID/g
tumor-to-blood ratio (LNCaP xenograft tumor [3]; 4 h p.i.): 118.4 ± 69.4
tumor uptake relative to [68Ga]Ga-PSMA-HBED-CC (LNCaP xenograft tumor [3]): nearly two-fold greater
Max. LNCaP Tumor Uptake Time p.i. (LNCaP xenograft tumor [3]): 2 h
Max. LNCaP Tumor Uptake (LNCaP xenograft tumor [3]; 2 h p.i.): 10.86 ± 1.03 %ID/g
Max. LNCaP Tumor Uptake (LNCaP xenograft tumor [3]; 2 h p.i., listed as [^18F]RPS-041): > 10 %ID/g
SMILES: O=C(O)CC[C@H](NC(=O)N[C@@H](CCCCNC(=O)Nc1ccc(-c2cn(CCF)nn2)cc1)C(=O)O)C(=O)O [RPS-041]

IC50 (PSMA): 10.2 nM
Max. LNCaP Tumor Uptake Time p.i. (LNCaP xenograft tumor [1]): 2 h
Max. LNCaP Tumor Uptake (LNCaP xenograft tumor [1]): 10.06 ± 1.33^c %ID/g
SMILES: O=C(O)CC[C@H](NC(=O)N[C@@H](CCCCNC(=O)Nc1ccccc1-c1cn(CCF)nn1)C(=O)O)C(=O)O [RPS-042]
route of clearance (LNCaP xenograft tumor [1]): clearance via the hepatobiliary pathway in addition to renal excretion
